Experimental data published in PubChem BioAssay AID2060621 (Molecular Pharmacology Branch, DTP, NCI, 2025).
Values joined by “and” are separate entries in the source; they are usually repeats but may differ in a detail not shown here. Identical values can stand only once. Blank lines part the entries; values can stand above or below the compound they belong to.

Test system: 324938-238-R-J1-PDC complex spheroids viability
Assay: Anticancer human tumor 324938-238-R-J1-PDC patient-derived bladder carcinoma cell line growth inhibition [CLK]
Conditions: for viability, T/C: stronger effect = lower value
In short: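 Patient-derived tumor cells grown as complex spheroids with HUVEC endothelial cells and mesenchymal stem cells, treated with drug combinations. Concentrations descend in half-log steps from near clinical Cmax, or from 10 microM if Cmax unknown.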

[1] = curve of first compound, second compound 0.0316 µM
[2] = curve of first compound, second compound 0.1 µM
[3] = curve of first compound, second compound 0.316 µM
[4] = curve of first compound, second compound 1 µM
[5] = curve of first compound, second compound 3.16 µM
[6] = curve of first compound, second compound 10 µM
[7] = second compound 0.0316 µM, first compound 0.00316 µM
[8] = second compound 0.0316 µM, first compound 0.01 µM
[9] = second compound 0.0316 µM, first compound 0.0316 µM
[10] = second compound 0.0316 µM, first compound 0.1 µM
[11] = second compound 0.1 µM, first compound 0.00316 µM
[12] = second compound 0.1 µM, first compound 0.01 µM
[13] = second compound 0.1 µM, first compound 0.0316 µM
[14] = second compound 0.1 µM, first compound 0.1 µM
[15] = second compound 0.316 µM, first compound 0.00316 µM
[16] = second compound 0.316 µM, first compound 0.01 µM
[17] = second compound 0.316 µM, first compound 0.0316 µM
[18] = second compound 0.316 µM, first compound 0.1 µM
[19] = second compound 1 µM, first compound 0.00316 µM
[20] = second compound 1 µM, first compound 0.01 µM
[21] = second compound 1 µM, first compound 0.0316 µM
[22] = second compound 1 µM, first compound 0.1 µM
[23] = second compound 3.16 µM, first compound 0.00316 µM
[24] = second compound 3.16 µM, first compound 0.01 µM
[25] = second compound 3.16 µM, first compound 0.0316 µM
[26] = second compound 3.16 µM, first compound 0.1 µM
[27] = second compound 10 µM, first compound 0.00316 µM
[28] = second compound 10 µM, first compound 0.01 µM
[29] = second compound 10 µM, first compound 0.0316 µM
[30] = second compound 10 µM, first compound 0.1 µM
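Further: viability read after seven days of drug exposure.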
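Wherever viability, T/C is given: 100% = DMSO vehicle control wells.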

Compound: CC(C)CC(NC(=O)C(Cc1ccccc1)NC(=O)c1cnccn1)B(O)O (configuration not stated) + CN1CCN(c2cc(C(=O)Nc3cc4cc(-c5cnn(C)c5)ccc4cn3)ccn2)CC1
IC50 [1]: 1.29 nM | IC50 [2]: < 0.949 nM | IC50 [3]: < 0.949 nM | IC50 [4]: < 0.949 nM | IC50 [5]: < 0.949 nM | IC50 [6]: < 0.949 nM | viability, T/C (second compound 0.0316 µM, first compound 0.000949 µM): 67% | viability, T/C (second compound 0.0316 µM, first compound 0.003 µM): 2.89% | viability, T/C (second compound 0.0316 µM, first compound 0.00949 µM): 0.33% | viability, T/C (second compound 0.0316 µM, first compound 0.03 µM): 0.33% | viability, T/C (second compound 0.0316 µM, first compound 0.0949 µM): 0.22% | viability, T/C (second compound 0.0316 µM, first compound 0.3 µM): 0.18% | viability, T/C (second compound 0.1 µM, first compound 0.000949 µM): 46.9% | viability, T/C (second compound 0.1 µM, first compound 0.003 µM): 2.21% | viability, T/C (second compound 0.1 µM, first compound 0.00949 µM): 0.38% | viability, T/C (second compound 0.1 µM, first compound 0.03 µM): 0.33% | viability, T/C (second compound 0.1 µM, first compound 0.0949 µM): 0.18% | viability, T/C (second compound 0.1 µM, first compound 0.3 µM): 0.32% | viability, T/C (second compound 0.316 µM, first compound 0.000949 µM): 11.1% | viability, T/C (second compound 0.316 µM, first compound 0.003 µM): 0.71% | viability, T/C (second compound 0.316 µM, first compound 0.00949 µM): 0.31% | viability, T/C (second compound 0.316 µM, first compound 0.03 µM): 0.2% | viability, T/C (second compound 0.316 µM, first compound 0.0949 µM): 0.15% | viability, T/C (second compound 0.316 µM, first compound 0.3 µM): 0.17% | viability, T/C (second compound 1 µM, first compound 0.000949 µM): 0.28% | viability, T/C (second compound 1 µM, first compound 0.003 µM): 0.27% | viability, T/C (second compound 1 µM, first compound 0.00949 µM): 0.18% | viability, T/C (second compound 1 µM, first compound 0.03 µM): 0.16% | viability, T/C (second compound 1 µM, first compound 0.0949 µM): 0.44% | viability, T/C (second compound 1 µM, first compound 0.3 µM): 0.22% | viability, T/C (second compound 3.16 µM, first compound 0.000949 µM): 0.23% | viability, T/C (second compound 3.16 µM, first compound 0.003 µM): 0.24% | viability, T/C (second compound 3.16 µM, first compound 0.00949 µM): 0.24% | viability, T/C (second compound 3.16 µM, first compound 0.03 µM): 0.1% | viability, T/C (second compound 3.16 µM, first compound 0.0949 µM): 0.18% | viability, T/C (second compound 3.16 µM, first compound 0.3 µM): 0.17% | viability, T/C (second compound 10 µM, first compound 0.000949 µM): 0.71% | viability, T/C (second compound 10 µM, first compound 0.003 µM): 0.21% | viability, T/C (second compound 10 µM, first compound 0.00949 µM): 0.18% | viability, T/C (second compound 10 µM, first compound 0.03 µM): 0.22% | viability, T/C (second compound 10 µM, first compound 0.0949 µM): 0.26% | viability, T/C (second compound 10 µM, first compound 0.3 µM): 0.25%

Compound: CCc1c2c(nc3ccc(O)cc13)-c1cc3c(c(=O)n1C2)COC(=O)[C@]3(O)CC + CN1CCN(c2cc(C(=O)Nc3cc4cc(-c5cnn(C)c5)ccc4cn3)ccn2)CC1
IC50 [1]: < 3.16 nM | IC50 [2]: < 3.16 nM | IC50 [3]: < 3.16 nM | IC50 [4]: < 3.16 nM | IC50 [5]: < 3.16 nM | IC50 [6]: < 3.16 nM | viability, T/C [7]: 14.9% | viability, T/C [8]: 10.1% | viability, T/C [9]: 11.5% | viability, T/C [10]: 9.42% | viability, T/C (second compound 0.0316 µM, first compound 0.316 µM): 8.03% | viability, T/C (second compound 0.0316 µM, first compound 1 µM): 1.47% | viability, T/C [11]: 12.7% | viability, T/C [12]: 10.3% | viability, T/C [13]: 8.87% | viability, T/C [14]: 8.12% | viability, T/C (second compound 0.1 µM, first compound 0.316 µM): 6.95% | viability, T/C (second compound 0.1 µM, first compound 1 µM): 1.21% | viability, T/C [15]: 10.5% | viability, T/C [16]: 7.5% | viability, T/C [17]: 4.44% | viability, T/C [18]: 3.89% | viability, T/C (second compound 0.316 µM, first compound 0.316 µM): 0.83% | viability, T/C (second compound 0.316 µM, first compound 1 µM): 0.18% | viability, T/C [19]: 0.42% | viability, T/C [20]: 0.28% | viability, T/C [21]: 0.24% | viability, T/C [22]: 0.06% | viability, T/C (second compound 1 µM, first compound 0.316 µM): 0.09% | viability, T/C (second compound 1 µM, first compound 1 µM): 0.38% | viability, T/C [23]: 0.16% | viability, T/C [24]: 0.17% | viability, T/C [25]: 0.19% | viability, T/C [26]: 0.1% | viability, T/C (second compound 3.16 µM, first compound 0.316 µM): 0.16% | viability, T/C (second compound 3.16 µM, first compound 1 µM): 0.14% | viability, T/C [27]: 0.1% | viability, T/C [28]: 0.11% | viability, T/C [29]: 0.17% | viability, T/C [30]: 0.11% | viability, T/C (second compound 10 µM, first compound 0.316 µM): 0.16% | viability, T/C (second compound 10 µM, first compound 1 µM): 0.16%

Compound: CC1COCCN1c1cc(C2(S(C)(=N)=O)CC2)nc(-c2ccnc3[nH]ccc23)n1 (configuration not stated)
viability, T/C (compound 0.0316 µM): 85.2% and 72.7% | viability, T/C (compound 0.1 µM): 86.7% and 79% | viability, T/C (compound 0.316 µM): 73.1% and 77.7% | viability, T/C (compound 1 µM): 68.5% and 59.5% | viability, T/C (compound 3.16 µM): 33.5% and 27.7% | viability, T/C (compound 10 µM): 14.9% and 13% | IC50 (curve of compound): 1780 nM and 1440 nM

More lines, main results first:

IC50 (compound alone, run of 08/15/2023): 62.5 nM [middle of 11 runs]
Compound: CNC(=O)c1ccc(Nc2nc(OC3CCCC3)c3c(-c4ccc5nc(C)oc5c4)c[nH]c3n2)c(OC)c1
viability, T/C (compound 0.0316 µM): 86% [middle of 12 runs] | viability, T/C (compound 0.1 µM): 28.1% [middle of 12 runs] | viability, T/C (compound 0.316 µM): 18.9% [middle of 12 runs] | viability, T/C (compound 1 µM): 15.9% [middle of 12 runs] | viability, T/C (compound 3.16 µM): 16.8% [middle of 12 runs] | viability, T/C (compound 10 µM): 17.5% [middle of 12 runs]

IC50 [1]: 11.9 nM | IC50 [2]: < 0.316 nM | IC50 [3]: < 0.316 nM | IC50 [4]: < 0.316 nM | IC50 [5]: < 0.316 nM | IC50 [6]: < 0.316 nM
Compound: Cn1ncnc1[C@H]1c2n[nH]c(=O)c3cc(F)cc(c23)N[C@@H]1c1ccc(F)cc1 + CNC(=O)c1ccc(Nc2nc(OC3CCCC3)c3c(-c4ccc5nc(C)oc5c4)c[nH]c3n2)c(OC)c1
viability, T/C (second compound 0.0316 µM, first compound 0.000316 µM): 83% | viability, T/C (second compound 0.0316 µM, first compound 0.001 µM): 89.5% | viability, T/C [7]: 66.3% | viability, T/C [8]: 54.8% | viability, T/C [9]: 35.1% | viability, T/C [10]: 26.6% | viability, T/C (second compound 0.1 µM, first compound 0.000316 µM): 26.2% | viability, T/C (second compound 0.1 µM, first compound 0.001 µM): 26.5% | viability, T/C [11]: 21.8% | viability, T/C [12]: 21% | viability, T/C [13]: 20.4% | viability, T/C [14]: 20.7% | viability, T/C (second compound 0.316 µM, first compound 0.000316 µM): 17.8% | viability, T/C (second compound 0.316 µM, first compound 0.001 µM): 20.8% | viability, T/C [15]: 16.7% | viability, T/C [16]: 18.7% | viability, T/C [17]: 19.8% | viability, T/C [18]: 17.4% | viability, T/C (second compound 1 µM, first compound 0.000316 µM): 16.5% | viability, T/C (second compound 1 µM, first compound 0.001 µM): 15.4% | viability, T/C [19]: 14.7% | viability, T/C [20]: 13.9% | viability, T/C [21]: 14.8% | viability, T/C [22]: 15.9% | viability, T/C (second compound 3.16 µM, first compound 0.000316 µM): 17.5% | viability, T/C (second compound 3.16 µM, first compound 0.001 µM): 19.6% | viability, T/C [23]: 15.4% | viability, T/C [24]: 17% | viability, T/C [25]: 18% | viability, T/C [26]: 15.4% | viability, T/C (second compound 10 µM, first compound 0.000316 µM): 18.2% | viability, T/C (second compound 10 µM, first compound 0.001 µM): 18.8% | viability, T/C [27]: 18.9% | viability, T/C [28]: 17.8% | viability, T/C [29]: 18.7% | viability, T/C [30]: 17.3%

IC50 (curve of compound): 8050 nM and 6340 nM
Compound: CC(CO)NC(=O)c1cc(-c2ccc(Cl)cc2)nn(-c2cnn(C)c2)c1=O (configuration not stated)
viability, T/C (compound 0.0316 µM): 84.8% and 86.6% | viability, T/C (compound 0.1 µM): 92.3% and 81.3% | viability, T/C (compound 0.316 µM): 71.5% and 73.9% | viability, T/C (compound 1 µM): 78.2% and 76.1% | viability, T/C (compound 3.16 µM): 60.9% and 59.9% | viability, T/C (compound 10 µM): 47.1% and 42.9%
